Experimental data reported in publication PMC12022751, “In vitro and in silico analysis of synthesized N-benzyl indole-derived hydrazones as potential anti-triple negative breast cancer agents” (RSC Advances, 2025).

Tests used:
Format in all cases: cell-based, human
[1] = system: MDA-MB-231 breast cancer cell line; assay: MTT cytotoxicity assay on MDA-MB-231; details: 48 h incubation; for Viability (%) Breast cancer cell line (MDA-MB-231): test concentration for viability not stated (6.5-50 μM tested); for IC50: triplicate
Description: (§1) All synthesized compounds (5a–5v) were tested using MTT assay at various concentrations (6.5 μM, 12.5 μM, 25 μM, and 50 μM) on the human breast cancer cell line MDA-MB-231. The cytotoxicity of the synthesized analogues was also assessed using human normal breast epithelial cell lines MCF-10A. Table 1 denotes IC50 values, percent inhibition, and cell viability for compounds 5a–v on MDA-MB-231. The dose–response analysis and calculations of IC50 values were performed using IBM SPSS statistics 26. The MTT assay on MDA-MB-231 confirmed the anticancer potential of all compounds. […] We then followed the same protocol as the cancer cells for the non-tumorigenic MCF-10A cells but with different concentrations (6.5 μM, 12.5 μM, 25 μM, and 50 μM). This was done to determine whether the toxic effects of the chemicals were selective for cancer cells compared to non-cancerous cells.
(§2) The in vitro cytotoxicity of the synthetic derivatives was evaluated using an MTT assay against a breast cancer cell line (MDA-MB-231).[33] The normal human breast cell line (MCF-10A) was maintained as a control in this study.[34,35] The cells were grown in DMEM with 10% FBS and 1% antibiotics (100 U mL^−1 penicillin). They were plated in a 96-well plate at a density of 1.0 × 10^4 cells per well and incubated for 24 hours at 37 °C in a 5% CO2 atmosphere. After discarding the medium, both cell lines were treated with various concentrations (6.5 μM, 12.5 μM, 25 μM, and 50 μM) of synthetic triazole derivatives.[36] After 48 h of incubation, [37] 20 μL of MTT solution (5 mg mL^−1) was added to each well and incubated for an additional 4 hours. After incubation, the medium was removed, and the formazan precipitate was dissolved in DMSO. The absorbance of the mixture was then measured at 570 nm using a microplate reader. All experiments were performed in triplicate, and the cytotoxicity was expressed as a percentage of cell viability compared to untreated control cells as per an earlier reported protocol by Sakhi et al.:[36]1 [drawing 1]

[2] = MTT cytotoxicity assay on normal MCF-10A cells; details: human, MCF-10A normal breast epithelial cells, 48 h incubation, test concentration for viability not stated (6.5-50 μM tested), read-out: Viability (%) Normal cell line (MCF-10A)
Description: as §1, §2

[3] = system: MCF-10A normal breast epithelial cell line; assay: MTT cytotoxicity assay on normal MCF-10A cells; details: Homo sapiens, MCF-10A, 48 h incubation
Description: as §1, §2

| Compound | Viability (%) Breast cancer cell line (MDA-MB-231) [1] | IC50 ([1]; Homo sapiens, MDA-MB-231, 48 h) | viability at 48 h [2] | IC50 [3] | IC50 [1] |
| --- | --- | --- | --- | --- | --- |
| O=C(Cc1ccccc1C(F)(F)F)NN=Cc1cn(Cc2ccccc2)c2ccccc12 [Compound 5p, (E)-N′-[(1-benzyl-1H-indo1-3-yl)methylene]-2-(2-(trifluoromethyl)phenypacetohydrazide] | 25.67% | 24.6 ± 0.1 µM | 83.1% | > 50 µM |  |
| O=C(NN=Cc1cn(Cc2ccccc2)c2ccccc12)c1ccccc1Br [Compound 5m, (E)-N′-[(1-benzyl-1H-indo1-3-yl)methylene]-2-bromobenzohydrazide] | 29.14% | 26.4 ± 0.2 µM | 87.2% | > 50 µM |  |
| O=C(Cc1cc(F)cc(F)c1)NN=Cc1cn(Cc2ccccc2)c2ccccc12 [Compound 5r, (E)-N′-[(1-benzyl-1H-indo1-3-yl)methylene]-2-(3,5-difluorophenyl)acetohydrazide] | 36.18% | 31.6 ± 0.1 µM | 84.1% | > 50 µM |  |
| O=C(NN=Cc1cn(Cc2ccccc2)c2ccccc12)c1ccccc1Cl [Compound 5o, (E)-N′-((l-benzyl-1H-indo1-3-yl)methylenel-2-chlorobenzohydrazide] | 20.37% | 19.6 ± 0.5 µM | 82.3% | > 50 µM |  |
| O=C(NN=Cc1cn(Cc2ccccc2)c2ccccc12)c1ccc(Br)cc1 [Compound 5f, (E)-N′-[(1-benzyl-1H-indo1-3-yl)methylene]-4-bromobenzohydrazide] | 25.05% | 21.8 ± 0.2 µM | 82.4% | > 50 µM |  |
| Cc1ccccc1C(=O)NN=Cc1cn(Cc2ccccc2)c2ccccc12 [Compound 5v, (E)-N′-[(1-benzyl-1H-indo1-3-yl)methylene]-2-methylbenzohydrazide] | 28.11% | 29.4 ± 0.8 µM | 81% | > 50 µM | 23.1 ± 0.6 µM |
| O=C(NN=Cc1cn(Cc2ccccc2)c2ccccc12)c1cc2ccccc2cc1O [Compound 5g, (E)-N′-[(1-benzyl-1H-indo1-3-yl)methylene]-3-hydroxy-2-naphthohydrazide] | 29.76% | 24.4 ± 0.6 µM | 81.8% | > 50 µM |  |
| O=C(NN=Cc1cn(Cc2ccccc2)c2ccccc12)c1cccc(Cl)c1 [Compound 5j, (E)-N′-[(1-benzyl-1H-indo1-3-yl)methylene]-3-chlorobenzohydrazide] | 21.87% | 22.6 ± 0.1 µM | 80.8% | > 50 µM |  |
| O=C(Cc1ccc(F)cc1F)NN=Cc1cn(Cc2ccccc2)c2ccccc12 [Compound 5q, (E)-N′-[(1-benzyl-1H-indo1-3-yl)methylene]-2-(2,4-difluorophenypacetohydrazide] | 41.09% | 37.6 ± 0.2 µM | 79.5% | > 50 µM |  |
| O=C(NN=Cc1cn(Cc2ccccc2)c2ccccc12)c1ccc(C(F)(F)F)cc1 [Compound 5h, (E)-N′-[(1-benzyl-1H-indo1-3-yl)methylene]-4-(trifluoromethyl)benzohydrazide] | 33.07% | 30.8 ± 0.4 µM | 78.1% | > 50 µM |  |
| Cc1ccc(C(=O)NN=Cc2cn(Cc3ccccc3)c3ccccc23)cc1F [Compound 5c, (E)-N′-((l-benzyl-1H-indo1-3-yl)methylenel-3-fluoro-4-methylbenzohydrazide] | 37.40% | 27.1 ± 0.4 µM | 85.7% | > 50 µM |  |
| O=C(NN=Cc1cn(Cc2ccccc2)c2ccccc12)c1cccc2ccccc12 [Compound 5u, (E)-N′-[(1-benzyl-1H-indo1-3-yl)methylene]-1-naphthohydrazide] | 30.59% | 26.6 ± 0.1 µM | 83.6% | > 50 µM |  |
| O=C(Cc1ccccc1)NN=Cc1cn(Cc2ccccc2)c2ccccc12 [Compound 5n, (E)-N′-(l-benzyl-1H-indo1-3-yl)methylenel-2-phenylacetohydrazide] | 44.16% | 43.4 ± 0.2 µM | 79.8% | > 50 µM |  |
| O=C(Cc1cc(F)ccc1F)NN=Cc1cn(Cc2ccccc2)c2ccccc12 [Compound 5s, (E)-N′-[(1-benzyl-1H-indo1-3-yl)methylene]-2-(2,5-difluorophenyl)acetohydrazide] | 38.14% | 29.4 ± 0.8 µM | 86.3% | > 50 µM |  |
| O=C(NN=Cc1cn(Cc2ccccc2)c2ccccc12)c1ccco1 [Compound 5i, (E)-N′-[(1-benzyl-1H-indo1-3-yl)methylene]furan-2-carbohydrazide] | 23.53% | 17.2 ± 0.4 µM | 84.6% | > 50 µM | 19.2 ± 0.4 µM |
| O=C(NN=Cc1cn(Cc2ccccc2)c2ccccc12)c1ccncc1 [Compound 5k, (E)-N′-[(1-benzyl-1H-indo1-3-yl)methylene]isonicotinohydrazide] | 23.44% | 21.4 ± 0.2 µM | 80.1% | > 50 µM |  |
| O=C(Cc1ccc(C(F)(F)F)cc1)NN=Cc1cn(Cc2ccccc2)c2ccccc12 [Compound 5d, (E)-N′-[(1-benzyl-1H-indo1-3-yl)methylene]-2-(4(trifluoromethyl)phenyl)acetohydrazide] | 27.94% | 22.6 ± 0.8 µM | 80.2% | > 50 µM |  |
| COc1ccc(C(=O)NN=Cc2cn(Cc3ccccc3)c3ccccc23)cc1 [Compound 5a, (E)-N′-[(1-benzyl-1H-indol-3-ylmethylene]-4-methoxybenzohydrazide] | 32.45% | 25.6 ± 0.4 µM | 82.7% | > 50 µM |  |
| O=C(NN=Cc1cn(Cc2ccccc2)c2ccccc12)c1ccccc1 [Compound 5b, (E)-N′-[(1-benzyl-1H-indo1-3-yl)methylene]benzohydrazide] | 18.56% | 17.2 ± 0.4 µM | 77.1% | > 50 µM |  |
| O=C(NN=Cc1cn(Cc2ccccc2)c2ccccc12)c1cccnc1 [Compound 5e, (E)-N′-[(1-benzyl-1H-indo1-3-yl)methylene]nicotinohydrazide] | 31.47% | 28.2 ± 0.5 µM | 85.7% | > 50 µM |  |
